From the NIST ThermoML archive (doi:10.1016/j.fluid.2013.11.031)
Numbers after ± are expanded uncertainties.

Conditions: Liquid, Vibrating tube method

CCCO [propan-1-ol]
mass density [kg/m3]
Conditions	293.15 K	313.15 K	333.15 K	353.15 K
100 kPa	803.8 ± 0.8	787.1 ± 0.8	769.9 ± 0.8	752 ± 0.8
10000 kPa	811.3 ± 0.8	795.5 ± 0.8	780 ± 0.8	762.5 ± 0.8
20000 kPa	818.1 ± 0.8	803 ± 0.8	788.3 ± 0.8	771.8 ± 0.8
30000 kPa	824.4 ± 0.9	810 ± 0.9	795.7 ± 0.9	780.2 ± 0.9
40000 kPa	830 ± 0.9	816.4 ± 0.9	802.5 ± 0.9	787.9 ± 0.9
50000 kPa	835.6 ± 0.9	822.3 ± 0.9	809 ± 0.9	795 ± 0.9
60000 kPa	841 ± 0.9	827.9 ± 0.9	815 ± 1	801.4 ± 1
70000 kPa	845.9 ± 1	833.2 ± 1	820.6 ± 1	807.7 ± 1
80000 kPa	850.7 ± 1	838.3 ± 1	826.2 ± 1	813.4 ± 1
90000 kPa	855.2 ± 1	843 ± 1	831.2 ± 1	818.7 ± 1.1
100000 kPa	859.6 ± 1	847.9 ± 1.1	836.3 ± 1.1	823.8 ± 1.1
110000 kPa	863.7 ± 1.1	852.3 ± 1.1	840.9 ± 1.1	828.8 ± 1.1
120000 kPa	867.8 ± 1.1	856.6 ± 1.1	845.3 ± 1.1	833.5 ± 1.2
130000 kPa	871.6 ± 1.1	860.7 ± 1.1	849.6 ± 1.2	837.9 ± 1.2
140000 kPa	875.3 ± 1.1	864.6 ± 1.1	853.6 ± 1.2	842.1 ± 1.2
